Reference: US20190231748A1, “COMPOSITION FOR VAGINA AND ANTIMICROBIAL AGENT COMBINATION FOR USE IN PREPARING COMPOSITION FOR VAGINA” (Shenzhen Eulikan Biotechnology Co., Ltd., priority 2016, published 2019)

Columns and labels:
Format in all cases: cell-based
[1] = test system: three strains of Staphylococcus aureus isolated from the vaginal secretion of patients with vaginitis; test: Growth in enrichment broth (turbidity after 24 hours), clinical strains
From the text: (§1) a. Experimental strains, three strains of Escherichia coli and three strains of Staphylococcus aureus, which were all isolated from the vaginal secretion of patients with vaginitis.
(§2) b. Enrichment broth, which contained 1 percent of yeast extract powder, 9 percent of sucrose, 0.025 percent of manganese sulfate (MnSO4.4H2O), 0.058 percent of magnesium sulfate (MgSO4.7H2O), and 0.9 percent of lactic acid, the pH value of the broth was adjusted to 4.8, and the enrichment broth was sterilized for later use;
(§3) (2). Experimental groups: the requirements for aseptic operation technique were strictly followed to prepare the sterile test tubes:
(§4) a. sodium benzoate group: each test tube contained 5 milliliters of enrichment broth, and was added in 0.05 percent (weight/volume) sodium benzoate;
(§5) b. 2-phenylethanol group: each test tube contained 5 milliliters of enrichment broth, and was added in 0.05 percent (weight/volume) of 2-phenylethanol;
(§6) c. sodium propionate group: each test tube contained 5 milliliters of enrichment broth, and was added in 0.25 percent (weight/volume) of sodium propionate;
(§7) d. “a group of the combinations of sodium benzoate and sodium propionate”: each test tube contained 5 milliliters of enrichment broth, and was added in 0.05 percent (weight/volume) of sodium benzoate and 0.25 percent (weight/volume) of sodium propionate;
(§8) e. “a group of the combinations of sodium benzoate and 2-phenylethanol”: each test tube contained 5 milliliters of enrichment broth, and was added in 0.05 percent (weight/volume) of sodium benzoate and 0.05 percent (weight/volume) of 2-phenylethanol;
(§9) f. “a group of the combinations of sodium propionate and 2-phenylethanol”: each test tube contained 5 milliliters of enrichment broth, and was added in 0.25 percent (weight/volume) of sodium propionate and 0.05 percent (weight/volume) of 2-phenylethanol;
(§10) g. “a group of the combinations of sodium benzoate, sodium propionate and 2-phenylethanol”: each test tube contained 5 milliliters of enrichment broth, and was added in 0.05 percent (weight/volume) of sodium benzoate, 0.25 percent (weight/volume) of sodium propionate, and 0.05 percent (weight/volume) of 2-phenylethanol;
(§11) h. positive control: one tube that contained 5 milliliters of enrichment broth without adding in any of the 2-phenylethanol, sodium benzoate, and sodium propionate, but inoculated the suspension of Escherichia coli or Staphylococcus aureus.
(§12) i. negative control: one tube that contained 5 milliliters of enrichment broth without adding in any of the 2-phenylethanol, sodium benzoate, and sodium propionate, and not inoculated the suspension of Escherichia coli or Staphylococcus aureus.
(§13) The requirements for aseptic operation technique were strictly followed to prepare the bacterial suspensions. The colonies of Escherichia coli and Staphylococcus aureus were diluted with physiological saline respectively to prepare bacterial suspension. The turbidities of the Escherichia coli suspension and the Staphylococcus aureus suspension were adjusted to 0.5 MCF (about 10^8 CFU/ml) by a turbidimeter. 1 milliliter of the 0.5 MCF bacterial suspensions were added into 9 milliliters of the enrichment broth respectively, so each bacterial solution was diluted for ten times to contain 10^7 CFU/ml of bacterial organisms.
(§14) The requirements for aseptic operation technique were strictly followed to take 100 microliters of the prepared bacterial suspensions respectively, and to add the bacterial suspensions into the aforesaid test tubes from a to h as well as positive control tube. No bacterial suspension was added into the negative control tube i.
(§15) The above tubes were cultured in a biochemical incubator at 37° C. for 24 hours, then turbidity changes of the test tube solutions were observed and recorded.
(§16) Remark: “+” means the growth of bacteria; “−” means no growth of bacteria.

Lactobacillus jensenii = test: Gram-stained smear of co-culture gel, Gram-positive rods (G+b); settings: for Smear G^+b: cultivated 32 hours
From the text: (§17) 2.1 Experimental strains: one Lactococcus lactis strain and one Lactobacillus jensenii strain, both were clinical isolates.
(§18) The pH value was adjusted to 5.0.
(§19) 2.4 Experimental procedure: the test gel tubes containing different concentrations of antimicrobial agents, as shown in Tables 1 to 6 were inoculated with 100 microliters of Lactobacillus lactis suspension and 100 microliters of Lactobacillus jensenii suspension at the same time. The turbidities of both suspensions were 0.5 MCF. Then the tubes were cultivated at 37° C. and under 5 percent CO2 for 32 hours. Then the changes of the pH values of gels were tested. The gels were smeared, Gram stained, and microscopically examined for the morphology and quantity of bacteria.

[2] = test system: Lactococcus lactis and Lactobacillus jensenii; test: pH of test gel after co-culture of Lactococcus lactis and Lactobacillus jensenii; settings: cultivated 32 hours
From the text: as §17, §18, §19

[3] = test system: three strains of Escherichia coli isolated from the vaginal secretion of patients with vaginitis; test: Growth in enrichment broth (turbidity after 24 hours), clinical strains
From the text: as §1, §2, §3, §4, §5, §6, §7, §8, §9, §10, §11, §12, §13, §14, §15, §16

[4] = 0.05 percent (weight/volume) in enrichment broth pH 4.8, 37° C. 24 hours
[5] = 0.25 percent (weight/volume) in enrichment broth pH 4.8, 37° C. 24 hours

SMILES: OCCc1ccccc1 [2-phenylethanol]
- could inhibit the growth of Staphylococcus aureus (agent alone, words) [1, 4]: no one of the three antimicrobial agents
- Smear G^+b (Lactobacillus jensenii; 0.15 % in test gel): G^+b+
- Smear G^+b (Lactobacillus jensenii; 0.2 % in test gel): G^+b+
- Smear G^+b (Lactobacillus jensenii; 0.25 % in test gel): G^+b+
- Smear G^+b (Lactobacillus jensenii; 0.3 % in test gel): G^+b+
- Smear G^+b (Lactobacillus jensenii; 0.35 % in test gel): G^+b+++
- inhibition effect on the growth of Lactobacillus (Lactobacillus jensenii; 0.35 to 0.45 percent): weaker inhibition effect
- Smear G^+b (Lactobacillus jensenii; 0.4 % in test gel): G^+b++
- Smear G^+b (Lactobacillus jensenii; 0.45 % in test gel): G^+b++
- Smear G^+b (Lactobacillus jensenii; 0.5 % in test gel): G^+b+
- pH value ([2]; 0.15 % in test gel): <3.8
- pH value ([2]; 0.2 % in test gel): <3.8
- pH value ([2]; 0.25 % in test gel): <3.8
- pH value ([2]; 0.3 % in test gel): <3.8
- pH value ([2]; 0.35 % in test gel): 3.8-4.1
- pH value ([2]; 0.4 % in test gel): 4.4
- pH value ([2]; 0.45 % in test gel): 4.6
- pH value ([2]; 0.5 % in test gel): 4.8
- could inhibit the growth of Escherichia coli (agent alone, words) [3, 4]: no one of the three antimicrobial agents

SMILES: CCC(=O)[O-].[Na+] [sodium propionate]
- could inhibit the growth of Staphylococcus aureus (agent alone, words) [1, 5]: no one of the three antimicrobial agents
- Smear G^+b (Lactobacillus jensenii; 0.1 % in test gel): G^+b+
- Smear G^+b (Lactobacillus jensenii; 0.2 % in test gel): G^+b+
- Smear G^+b (Lactobacillus jensenii; 0.3 % in test gel): G^+b+
- Smear G^+b (Lactobacillus jensenii; 0.4 % in test gel): G^+b++
- inhibition effect on the growth of Lactobacillus (Lactobacillus jensenii; 0.4 to 0.6 percent): weaker inhibition effect
- Smear G^+b (Lactobacillus jensenii; 0.5 % in test gel): G^+b++
- Smear G^+b (Lactobacillus jensenii; 0.6 % in test gel): G^+b++
- Smear G^+b (Lactobacillus jensenii; 0.7 % in test gel): G^+b+
- pH value ([2]; 0.1 % in test gel): 3.8
- pH value ([2]; 0.2 % in test gel): 3.8
- pH value ([2]; 0.3 % in test gel): 3.8
- pH value ([2]; 0.4 % in test gel): 4.4
- pH value ([2]; 0.5 % in test gel): 4.4-4.6
- pH value ([2]; 0.6 % in test gel): 4.6
- pH value ([2]; 0.7 % in test gel): 4.8
- could inhibit the growth of Escherichia coli (agent alone, words) [3, 5]: no one of the three antimicrobial agents
